# Marks after values point to notes of the source that are not given here. Numbered stars: 1 amine (or outer) side, 2 acyl side, 3 side chain; on linkers, the order of the positions; unused ones are H or OH. Square brackets hold non-standard residues; d marks the D form. Peptide text beside a SMILES is read from it. * marks the point of attachment. AFC = O=c1cc(C(F)(F)F)c2ccc(N*)cc2o1; Glutaryl = O=C(CCCC(=O)[*:2])[*:1]; AMC = Cc1cc(=O)oc2cc(N*)ccc12; Suc = O=C(CCC(=O)[*:2])[*:1]; Cbz = O=C(OCc1ccccc1)*
# Tests used:
# Type in all cases: cell-based
# HL-60 or Jurkat [1] = test: Protease retention substrate selectivity, untreated viable cells; parameters: key: None denotes no statistical activity above control population.; (+) to (+++++) denotes the range of activity above control population from modest to robust; (+) to (+++++) denotes the range of activity above control population from modest to robust; (+) to (+++++) denotes the range of activity above control population from modest to robust; (+) to (+++++) denotes the range of activity above control population from modest to robust; (+) to (+++++) denotes the range of activity above control population from modest to robust; settings: substrate cleavage activity above control in untreated viable cells; 15-30 minutes at 37° C.
# From the text: (§1) Ala-Ala-Phe-AMC was obtained from Promega. Z-Leu-Leu-Val-Tyr-aminoluciferin (LLVY corresponds to SEQ ID NO:18), Z-Leu-Arg-aminoluciferin, Z-Phe-Arg-aminoluciferin, Ala-Ala-Phe-aminoluciferin, (Ala-Ala-Phe)2-R110, and (Gly-Phe)2-R110 were synthesized by Promega Biosciences. Suc-Ala-Ala-Phe-AMC, H-Phe-AMC, H-Tyr-AMC, Glutyl-Ala-Ala-Phe-AMC (EMF corresponds to SEQ ID NO:32), H-Gly-Phe-AMC, Z-Gly-Ala-Met-AMC, Suc-Leu-Leu-Val-Tyr-AMC (LLVY corresponds to SEQ ID NO:18), D-Ala-Leu-Lys-AMC, H-Gly-Ala-AMC, H-Gly-Gly-AMC, Suc-Ala-Ala-Phe-AMC, Z-Arg-Leu-Arg-Gly-Gly-AMC (RLRGG corresponds to SEQ ID NO:29), Z-Leu-Arg-Gly-Gly-AMC (LRGG corresponds to SEQ ID NO:30) and Ac-Ala-Ala-Tyr-AMC were sourced from Bachem. Gly-Phe-AFC, Pro-Phe-Arg-AMC, Gly-Gly-Leu-AMC, and Ser-Tyr-AFC were obtained from Calbiochem. Z-Phe-Arg-AMC and Suc-Arg-Pro-Phe-His-Leu-Leu-Val-Tyr-AMC (RPHLLVY corresponds to SEQ ID NO:31) were purchased from Sigma.
# (§2) All substrates were solubilized in DMSO from 10 to 100 mM depending upon inherent solubility. Fluorescent substrates were diluted to 100 μM to 1 mM in 10 mM Hepes, pH 7.5 or matched cell culture medium with 10% serum and added in 1/10th volumes to lysed (freeze fractured, sonicated, or detergent) or untreated viable cells in white-walled, clear bottomed 96-well plates. HL-60 or Jurkat were used in the experimentation interchangeably because of their easily manipulated suspension phenotype. Plates were incubated for 15-30 minutes at 37° C. prior to measuring fluorescence by the CYTOFLUOR® II.
# (§3) Luminescent substrates were added to a luciferin detection cake (Promega V859A) resuspended in 2 ml 10 mM Hepes, pH 7.5 to 500 μM. ⅕^th volume of the proluminescent reaction mixes were added to lysed (freeze fractured, sonicated, or detergent) or untreated viable cells in white-walled, clear bottomed 96-well plates. Again, HL-60 or Jurkat were used in the experimentation interchangeably. Plates were incubated at 37° C. in a MeCour' circulating heat block controlled by a Caron 2050W exchange unit. Luminescence was measured between 15 and 30 minutes (signal steady state).
# (§4) A broad variety of proteolytic substrates were examined in an effort to characterize potential substrate preferences for protease release or retention in compromised or viable cells (see Table 4). […] Non-blocked substrates (H- and the like) were examined to include the contribution of aminopeptidase activities. From this panel, at least three proteolytic profiles emerged: an aminopeptidase-like activity preferring unblocked Ala-Ala-Phe tripeptide, a proteosomal (chymotrypsin-like) activity measured by release of blocked Leu-Leu-Val-Tyr (SEQ ID NO:18) peptides, and an exceedingly labile activity by Gly-Phe, Gly-Ala, Phe-, Tyr- or Gly-Gly-Leu substrates. The latter activities were only measurable in viable, intact cells. Of further significance is that several fluorophores or proluminescent labels can be used to detect these activities, ultimately allowing for enhanced downstream multiplexing flexibility.
# HL-60 or Jurkat [2] = test: Protease release substrate selectivity, lysed (freeze fractured, sonicated, or detergent) cells; parameters: key: None denotes no statistical activity above control population.; (+) to (+++++) denotes the range of activity above control population from modest to robust; (+) to (+++++) denotes the range of activity above control population from modest to robust; (+) to (+++++) denotes the range of activity above control population from modest to robust; (+) to (+++++) denotes the range of activity above control population from modest to robust; (+) to (+++++) denotes the range of activity above control population from modest to robust; settings: substrate cleavage activity above control in lysed cells; 15-30 minutes at 37° C.
# From the text: as §1, §2, §3, §4
# SK-MEL-28 cells = test: Live cell protease retention multiplexed with caspase 3/7 activity, SK-MEL-28; settings: SK-MEL-28, serial dilutions, 5 hours
# Protocol: SK-MEL-28 or ACHN cells were seeded into white-walled, clear bottomed 96 well plates at a density of 10,000 cells per well in 100 μl volumes and allowed to attach at 37° C. in 5% CO2 for a period of 2 hours. After attachment, 50 μl of medium was carefully removed and replaced with serial dilutions of either ionomycin or staurosporine in MEM+10% FBS. Medium only served as control. The plate was incubated for an additional 5 hours. A 1 mM solution of Gly-Phe-AFC was made in MEM and added to the wells in a 1/10th volume. Resulting fluorescence was measured using a CYTOFLUOR® II. Caspase-GIo™ 3/7 reagent was then added and luminescence measure using a BMG FLUOstar Optima.
Molecule,Retention (HL-60 or Jurkat [1]),Release (HL-60 or Jurkat [2]),Cytotoxicity profile (live cell fluorescence and caspase 3/7 activity) (SK-MEL-28 cells)
"CC(N)C(=O)NC(C)C(=O)NC(Cc1ccccc1)C(=O)Nc1ccc2c(c1)Oc1cc(NC(=O)C(Cc3ccccc3)NC(=O)C(C)NC(=O)C(C)N)ccc1C21OC(=O)c2ccccc21 (stereo not drawn) [(Ala-Ala-Phe) 2 R110, (Ala-Ala-Phe)2-R110]",None,+++++,
CC(=O)NC(C)C(=O)NC(C)C(=O)NC(Cc1ccc(O)cc1)C(=O)Nc1ccc2c(C)cc(=O)oc2c1 (stereo not drawn) [Ac-Ala-Ala-Tyr-AMC] (Ac-Ala-Ala-Tyr-{AMC}; configuration not given here),None,None,
Cc1cc(=O)oc2cc(NC(=O)C(Cc3ccccc3)NC(=O)C(C)NC(=O)C(C)N)ccc12 (stereo not drawn) [Ala-Ala-Phe-AMC] (H-Ala-Ala-Phe-{AMC}; configuration not given here),None,+++++,
"CC(N)C(=O)NC(C)C(=O)NC(Cc1ccccc1)C(=O)Nc1ccc2nc(C3=NC(C(=O)O)CS3)sc2c1 (stereo not drawn) [Ala-Ala-Phe-Aminoluc, Ala-Ala-Phe-aminoluciferin]",None,+++++,
"Cc1cc(=O)oc2cc(NC(=O)[C@H](Cc3ccccc3)NC(=O)[C@H](C)NC(=O)[C@H](C)NC(=O)CCCC(=O)O)ccc12 [Gluty-Ala-Ala-Phe-AMC, Glutyl-Ala-Ala-Phe-AMC] (Glutaryl-Ala-Ala-Phe-{AMC})",None,None,
NCC(=O)N[C@@H](Cc1ccccc1)C(=O)Nc1ccc2c(C(F)(F)F)cc(=O)oc2c1 [Gly-Phe-AFC] (H-Gly-Phe-{AFC}),+++++,None,
"Cc1cc(=O)oc2cc(NC(=O)[C@H](Cc3ccccc3)NC(=O)CN)ccc12 [Gly-Phe-AMC, H-Gly-Phe-AMC] (H-Gly-Phe-{AMC})",++,None,
Cc1cc(=O)oc2cc(NC(=O)[C@H](CCCCN)NC(=O)[C@H](CC(C)C)NC(=O)[C@@H](C)N)ccc12 [H-D-Ala-Leu-Lys-AMC] (H-[dA]-Leu-Lys-{AMC}),None,None,
Cc1cc(=O)oc2cc(NC(=O)C(C)NC(=O)CN)ccc12 (stereo not drawn) [H-Gly-Ala-AMC],++,None,
Cc1cc(=O)oc2cc(NC(=O)CNC(=O)CN)ccc12 [H-Gly-Gly-AMC] (H-Gly-Gly-{AMC}),None,None,
Cc1cc(=O)oc2cc(NC(=O)[C@@H](N)Cc3ccccc3)ccc12 [H-Phe-AMC],+++,None,
Cc1cc(=O)oc2cc(NC(=O)[C@H](CCCN=C(N)N)NC(=O)[C@H](Cc3ccccc3)NC(=O)[C@@H]3CCCN3)ccc12 [H-Pro-Phe-Arg-AMC] (H-Pro-Phe-Arg-{AMC}),None,None,
Cc1cc(=O)oc2cc(NC(=O)[C@@H](N)Cc3ccc(O)cc3)ccc12 [H-Tyr-AMC],++,None,
N[C@@H](CO)C(=O)N[C@@H](Cc1ccc(O)cc1)C(=O)Nc1ccc2c(C(F)(F)F)cc(=O)oc2c1 [Ser-Tyr-AFC] (H-Ser-Tyr-{AFC}),None,None,
Cc1cc(=O)oc2cc(NC(=O)[C@H](Cc3ccccc3)NC(=O)[C@H](C)NC(=O)[C@H](C)NC(=O)CCC(=O)O)ccc12 [Suc-Ala-Ala-Phe-AMC] (Suc-Ala-Ala-Phe-{AMC}),None,None,
Cc1cc(=O)oc2cc(NC(=O)[C@H](Cc3ccc(O)cc3)NC(=O)[C@@H](NC(=O)[C@H](CC(C)C)NC(=O)[C@H](CC(C)C)NC(=O)CCC(=O)O)C(C)C)ccc12 [Suc-Leu-Leu-Val-Tyr-AMC] (Suc-LLVY-{AMC}),None,+,
Cc1cc(=O)oc2cc(NC(=O)CNC(=O)CNC(=O)[C@H](CCCN=C(N)N)NC(=O)[C@H](CC(C)C)NC(=O)[C@H](CCCN=C(N)N)NC(=O)OCc3ccccc3)ccc12 [Z-Arg-Leu-Arg-Gly-Gly-AMC],None,None,
CSCC[C@H](NC(=O)[C@H](C)NC(=O)CNC(=O)OCc1ccccc1)C(=O)Nc1ccc2c(C)cc(=O)oc2c1 [Z-Gly-Ala-Met-AMC] (Cbz-Gly-Ala-Met-{AMC}),None,None,
Cc1cc(=O)oc2cc(NC(=O)[C@H](CC(C)C)NC(=O)CNC(=O)CNC(=O)OCc3ccccc3)ccc12 [Z-Gly-Gly-Leu-AMC] (Cbz-Gly-Gly-Leu-{AMC}),++*,None,
"CC(C)C[C@H](NC(=O)OCc1ccccc1)C(=O)N[C@@H](CCCNC(=N)N)C(=O)Nc1ccc2nc(C3=N[C@@H](C(=O)O)CS3)sc2c1 [Z-Leu-Arg-Aluc, Z-Leu-Arg-aminoluciferin]",None,None,
Cc1cc(=O)oc2cc(NC(=O)CNC(=O)CNC(=O)[C@H](CCCN=C(N)N)NC(=O)[C@H](CC(C)C)NC(=O)OCc3ccccc3)ccc12 [Z-Leu-Arg-Gly-Gly-AMC] (Cbz-LRGG-{AMC}),None,None,
Cc1cc(=O)oc2cc(NC(=O)C(CCCN=C(N)N)NC(=O)C(Cc3ccccc3)NC(=O)OCc3ccccc3)ccc12 (stereo not drawn) [Z-Phe-Arg-AMC] (Cbz-Phe-Arg-{AMC}; configuration not given here),None^1,None,
"N=C(N)NCCCC(NC(=O)C(Cc1ccccc1)NC(=O)OCc1ccccc1)C(=O)Nc1ccc2nc(C3=NC(C(=O)O)CS3)sc2c1 (stereo not drawn) [Z-Phe-Arg-Aluc, Z-Phe-Arg-aminoluciferin]",None,None,
C[C@H](CCC(=O)O)C[C@H](C)C[C@H](C)C(=O)/C=C(\O)[C@H](C)C[C@H](C)C/C=C/[C@@H](C)[C@@H](O)[C@@H](C)[C@@H](O)C[C@@H]1CC[C@@](C)([C@H]2CC[C@@](C)([C@@H](C)O)O2)O1 [ionomycin],,,necrotic-type profile
Suc-RPFHLLVY-{AMC} [S-R-P-F-H-L-L-V-Y-AMC],None,None,

# From US8476036B2, “Nonluminogenic assay for living cells” (Promega Corporation, priority 2004, dated 2013)
